Assay results as given in patent publication US11066414B2, “Cot modulators and methods of use thereof” (Gilead Sciences, Inc., priority 2015, dated 2021).
Read-outs that look alike come from different tables or passages of the source.

What was measured:
TNFα = experiment: Cot Monocyte TNFα Cell Based Assay
Human Cot = Human Cot (Homo sapiens (Human), UniProt P41279); experiment: High Throughput Cot Biochemical Assay
[1] = Homo sapiens, Monocyte, read-out: EC50 TNF, LPS-stimulated human monocytes, TNFα
[2] = IC50 HTRF, Cot HTRF (TR-FRET) biochemical assay

Sequence of Human Cot (P41279 30-397): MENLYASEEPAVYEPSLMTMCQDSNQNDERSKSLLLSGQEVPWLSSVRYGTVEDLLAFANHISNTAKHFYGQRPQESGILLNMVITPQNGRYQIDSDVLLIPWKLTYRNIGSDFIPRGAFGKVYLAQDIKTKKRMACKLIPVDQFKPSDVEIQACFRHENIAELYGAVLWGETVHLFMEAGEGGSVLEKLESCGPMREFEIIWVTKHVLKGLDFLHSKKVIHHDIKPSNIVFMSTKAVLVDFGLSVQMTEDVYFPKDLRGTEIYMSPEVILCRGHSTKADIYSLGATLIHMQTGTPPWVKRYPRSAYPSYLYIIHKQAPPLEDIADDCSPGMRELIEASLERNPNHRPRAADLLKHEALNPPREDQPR

Structure (SMILES) | EC50 (TNFα; [1]) | IC50 (Human Cot; [2]) | also measured
CC(C)(C)CNc1c(C#N)cnc2c(C#N)cc(N[C@H](c3cn(C4(CO)CC4)nn3)c3cccc4ncsc34)cc12 [Example 465, (S)-6-((benzo[d]thiazol-7-yl(1-(1-(hydroxymethyl)cyclopropyl)-1H-1,2,3-triazol-4-yl)methyl)amino)-4-(neopentylamino)quinoline-3,8-dicarbonitrile] | 155 nM | 2 nM | 
CC(C)(C)N1CCC(n2cc([C@@H](Nc3cc(Cl)c4ncc(C#N)c(NC5CCCCCC5)c4c3)c3cccnc3)nn2)CC1 [Example 288, (S)-6-(((1-(1-(tert-butyl)piperidin-4-yl)-1H-1,2,3-triazol-4-yl)(pyridin-3-yl)methyl)amino)-8-chloro-4-(cycloheptylamino)quinoline-3-carbonitrile] | 1060 nM | 26 nM | 
Cc1ncsc1[C@H](Nc1cc(Cl)c2ncc(C#N)c(N[C@H](C)c3ccccc3)c2c1)c1cn(C(C)C)nn1 [Example 239, 8-chloro-6-(((R)-(1-isopropyl-1H-1,2,3-triazol-4-yl)(4-methylthiazol-5-yl)methyl)amino)-4-(((R)-1-phenylethyl)amino)quinoline-3-carbonitrile] | 928 nM | 16 nM | 
COc1nccc2c([C@H](Nc3cc(C#N)c4ncc(C#N)c(NCC(C)(C)C)c4c3)c3cn(C(CF)CF)nn3)cccc12 [Example 825, (S)-6-(((1-(1,3-difluoropropan-2-yl)-1H-1,2,3-triazol-4-yl)(1-methoxylsoquinolin-5-yl)methyl)amino)-4-(neopentylamino)quinoline-3,8-dicarbonitrile] |  |  | EC50 (TNFα; read-out: EC50 TNF, LPS-stimulated human monocytes, TNFα TR-FRET): 113 nM; IC50 (Human Cot; read-out: IC50 HTRF, Cot HTRF (TR-FRET KinEASE) biochemical assay, 400 μM ATP): 7 nM
[2H][C@](Nc1cc(Cl)c2ncc(C#N)c(N[C@H](CC#N)c3ccccc3)c2c1)(c1ccc(F)nc1)c1cn(C2CC2)nn1 [Example 129, 8-chloro-4-(((R)-2-cyano-1-phenylethyl)amino)-6-(((S)-(1-cyclopropyl-1H-1,2,3-triazol-4-yl)(6-fluoropyridin-3-yl)methyl-d)amino)quinoline-3-carbonitrile] | 81 nM | 2 nM | 
C[C@@H](Nc1c(C#N)cnc2c(Cl)cc(N[C@H](c3cn(C4CCN(C(C)(C)C)CC4)nn3)c3csc4c3CCN(C3COC3)C4)cc12)c1ccccc1 [Example 237] |  |  | EC50 (TNFα; read-out: EC50 TNF, LPS-stimulated human monocytes, TNFα): 29 nM; IC50 (Human Cot; read-out: IC50 HTRF, Cot HTRF (TR-FRET) biochemical assay): 1 nM
Cn1cnc2c([C@H](Nc3cc(Cl)c4ncc(C#N)c(NCC(C)(C)C)c4c3)c3cn(C4(C(F)(F)F)CC4)nn3)cccc21 [Example 520, (S)-8-chloro-6-(((1-methyl-1H-benzo[d]imidazol-4-yl)(1-(1-(trifluoromethyl)cyclopropyl)-1H-1,2,3-triazol-4-yl)methyl)amino)-4-(neopentylamino)quinoline-3-carbonitrile] | 926 nM | 123 nM | 
CC(C)(C)CNc1c(C#N)cnc2c(C#N)cc(N[C@H](c3cn(C4(C(F)(F)F)CC4)nn3)c3ccc(C#N)c4ncccc34)cc12 [Example 710, (S)-6-(((8-cyanoquinolin-5-yl)(1-(1-(trifluoromethyl)cyclopropyl)-1H-1,2,3-triazol-4-yl)methyl)amino)-4-(neopentylamino)quinoline-3,8-dicarbonitrile] | 148 nM | 5 nM | 
CC(C)(C)CNc1c(C#N)cnc2c(C#N)cc(N[C@H](c3cn(C4(C(F)(F)F)CC4)nn3)c3cncc4ccccc34)cc12 [Example 673, (S)-6-((isoquinolin-4-yl(1-(1-(trifluoromethyl)cyclopropyl)-1H-1,2,3-triazol-4-yl)methyl)amino)-4-(neopentylamino)quinoline-3,8-dicarbonitrile] | 808 nM | 142 nM | 
CC(C)(C)CNc1c(C#N)cnc2c(Cl)cc(N[C@H](c3cn(C4CC4)nn3)c3csc4cnccc34)cc12 [Example 738, (S)-8-chloro-6-(((1-cyclopropyl-1H-1,2,3-triazol-4-yl)(thieno[2,3-c]pyridin-3-yl)methyl)amino)-4-(neopentylamino)quinoline-3-carbonitrile] | 40 nM | 2 nM | 
